In patent US20120136033A1, “Small Molecule Antagonists of Phosphatidylinositol-3,4,5-Triphosphate (PIP3) and Uses Thereof” (President and Fellows of Harvard College, priority 2009, published 2012):

What was measured:
[1] = tested on: U87MG cells; assay: U87MG cell viability, ATP assay; type: cell-based, human; conditions: for viability of U87MG cells: 12.5-100 μM, 48 hr, ATP assay
Procedure: U87MG cells were incubated with PITs (12.5-100 μM) for 48 hr. Cell viability was determined using ATP assay.
Based on the critical role of PIP3-dependent Akt signaling in the regulation of cell survival, the effect of PIT-1 on the cancer cell viability was tested. Cancer cells were seeded into 96-well plates (white plates for ATP assay; black plates for fluorescent assay; clear plates for MTS assay) at the density of 5-10×10^3 cells per well in 100 μl of the appropriate media. Compounds were added at a series of concentrations and incubated for different times. For the ATP assay, a luminescence-based commercial kit (CellTiter-Glo, Promega, Madison, Wis.) was used. Thirty microliters of cell lysis/ATP detection reagent was added to each well, mixed for 10 min at room temperature, and the luminescence was measured using a Wallac Victor 3 plate reader (Perkin-Elmer, Wellesley, Mass.). For the MTS assay, a CellTiter 96 AQueous Non-Radioactive Cell Proliferation Assay Kit (Promega, Madison, Wis., USA) was used. Twenty microliters of the combined MTS/PMS solution was added into each well, incubated for 4 hr at 37° C., and the absorbance at 490 nm was measured using a Wallac Victor 3 plate reader. For the Sytox cell death assay, measuring loss of plasma membrane integrity, cells were incubated with 1 μM Sytox Green reagent (Molecular Probes, Eugene, Oreg.) for 30 min at 37° C. and the fluorescence intensity was measured using Wallac Victor 3 plate reader with excitation at 485 nm and emission at 545 nm. Next, 5 μl of 20% (v/v) Triton X-100 solution was added to each well and incubated for 1 hr at 37° C., and the signal was measured again. The ratio of values (percentage of dead cells in each well) before and after Triton X-100 treatment was calculated and normalized to the relevant controls not subjected to the cytotoxic stimuli. IC50 values were determined using Origin6 software (MicroCal, LLC, Northampton, Mass.).

[2] = target: T1, PH123 (Akt PH domain) (Homo sapiens, UniProt P31749); assay: lipid overlay assay of PIP3/PH123 binding
T1 construct: recombinant 1-123 amino acid N-terminal fragment of human Akt1; made in house; host or cells: E. coli BL21(DE3)

[3] = tested on: HUVEC; assay: HUVEC migration, wound healing and transwell assays; type: cell-based, human
Procedure: Two models of cell migration were used, a transwell migration model and a wound closure model. Migration of cancer and endothelial cells was evaluated using 24-transwell Boyden chamber (Costar, Bedford, Mass.) with a polystyrene membrane (6.5 mm diameter, 10 μm thickness, and 8 μm pore size). Cells were suspended in serum-free media and seeded in the upper compartment of each well (2×10^4 cells/well) in the presence or absence of different compounds at the indicated concentrations. The lower compartment contained 600 μl of serum-free culture media supplemented with growth factors. After an 8-hr incubation at 37° C., cells were fixed and stained with 0.1% crystal violet. Non-migrating cells on the upper surface of the filter were removed, and the stained cells that migrated to the lower side were photographed using a phase-contrast microscope (Nikon, Japan) in five random fields. The cells were lysed with 10% acetic acid, and colorimetric determination was made at 595 nm using Wallac Victor 3 plate reader.
Cancer or endothelial cells were seeded into fibronectin-coated 96-well plates (2×10^4 cells/well). […]
Second, HUVEC were serum starved and treated with PITs (25, 50 100 μM) or PIT-1is (100 μM) for 8 hr, followed by bFGF (10 ng/ml) stimulation for 15 min. […] The number of cell ruffles/lamellipodia was counted in five random fields.

[4] = tested on: U87MG cells; assay: long-term colony formation by U87MG cells; type: cell-based, human
[5] = tested on: SUM159 cells transfected with VAV2 or WAVE2; assay: wound healing migration of VAV- or WAVE-overexpressing SUM159 cells; type: cell-based, human; conditions: 100 μM, PDGF, 8 hr
Procedure: SUM159 cells were transfected with VAV2 or WAVE2. Scratch wound was generated in cell monolayer, followed by treatment with PIT-1 (100 μM) in the presence of PDGF (100 ng/ml) stimulation for 8 hr. The inhibitory effect of PITs on VAV- or WAVE-induced cell migration was calculated according to the width of wound. The width of wounded cell monolayers was measured in five random fields.

[6] = target: T2, Akt PH domain (Homo sapiens, UniProt P31749); assay: PH domain translocation assay, GFP-fused Akt PH domain; type: cell-based; conditions: 100 μM, 2 hr, PDGF stimulation
T2 construct: Akt PH domain-GFP, VAV2-GFP and VAV3-GFP vectors were generous gifts of Dr. Joanne Brugge; expressed in transfected cells
Procedure: Cells were transfected with the corresponding GFP-fusion vectors, serum starved overnight, and incubated with 100 μM PITs or PIT-1is for 2 hr, followed by stimulation with 100 ng/ml PDGF or 250 ng/ml PMA for 5 min. The translocation was analyzed using fluorescent microscope and was quantitated by counting the number of cells with translocated PH domains in five random fields.
To begin characterizing cellular activity of PITs, a PH domain translocation assay was performed, measuring PIP3-induced association of GFP-fused PH domains with the plasma membrane. This method provides useful means for monitoring status of the PH domain/PIP3 binding in the intact cells. Varnai P et al. (1999) J Biol Chem 274:10983-9. Several PH-domain-containing proteins, which are known to bind PIP3 specifically and efficiently, were examined. […] Oikawa T et al. (2004) Nat Cell Biol 6:420-6.

[7] = stability in dimethylsulfoxide; type: physicochemical

T2 sequence (P31749 5-108 limits assumed): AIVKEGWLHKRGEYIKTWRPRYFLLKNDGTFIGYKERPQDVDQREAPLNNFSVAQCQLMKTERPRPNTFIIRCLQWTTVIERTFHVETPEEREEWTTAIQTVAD
T1 sequence (P31749 1-123): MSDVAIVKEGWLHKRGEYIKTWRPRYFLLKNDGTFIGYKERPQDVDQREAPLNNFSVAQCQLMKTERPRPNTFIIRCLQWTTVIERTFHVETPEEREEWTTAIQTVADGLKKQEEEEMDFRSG

Structure (SMILES)	killing of U87MG cells compared with LY294002 [1]	viability of U87MG cells [1]	effect on PIP3/PH123 binding, lipid overlay [2]	migration of HUVEC cells [3]	long-term colony formation by U87MG cells [4]	inhibition of cell migration in VAV- and WAVE-overexpressing cells compared to control cells [5]	inhibition of translocation of Akt PH domain to the plasma membrane [6]	stability in dimethylsulfoxide (DMSO) [7]
O=C(NC(=S)Nc1cc([N+](=O)[O-])cc(Cl)c1O)c1ccccc1 [PIT-1]	more pronounced than that by the PI3K inhibitor LY294002	reduce viability	concentration-dependent inhibitory effect	efficiently blocked migration	suppressed long-term colony formation	larger degree of inhibition	significantly inhibited	
O=C1NC(=S)S/C1=C\c1cc(O)c([N+](=O)[O-])cc1Cc1ccccc1 [PIT-2]		reduce viability		efficiently blocked migration		larger degree of inhibition	significantly inhibited	limited stability
